Results: ChEMBL document CHEMBL1124755, “Role of hydrogen bonding in ligand interaction with the N-methyl-D-aspartate receptor ion channel” (J Med Chem, 1990)

target: Glutamate NMDA receptor; assay: Evaluated for its affinity to bind ion channel binding sites (phencyclidine or PCP receptor) on the N-methyl-D-aspartate glutamate receptor in rat brain membrane using [3H]MK-801 as radioligand; format: cell membranes

Row | SMILES | IC50
1 | C[C@@]12Cc3ccccc3C(CN1)[C@@H](O)c1ccccc12 (mixture of isomers) | 8.1 µM
2 | CC12Cc3ccccc3[C@@H](O)C(CN1)c1ccccc12 (mixture of isomers) | 0.95 µM
3 | C[C@@]12N[C@@](C)(c3ccccc31)C(O)c1ccccc12 (mixture of isomers; 13) | 0.065 µM
4 | C[C@@]12N[C@@](C)(c3ccccc31)C(O)c1ccccc12 (mixture of isomers; 14) | 6.6 µM

target: Glutamate NMDA receptor; assay: Evaluated for its affinity to bind PCP N-methyl-D-aspartate (NMDA) glutamate receptor in rat brain membrane using [3H]MK-801 as radioligand; format: cell membranes

Row | SMILES | IC50
5 | C[C@]12Cc3ccccc3C[C@](C)(N1)c1ccccc12 | 30 nM
6 | c1ccc2c(c1)C[C@@H]1N[C@H](C2)c2ccccc21 | 640 nM
7 | C[C@]12N[C@H](Cc3ccccc31)Cc1ccccc12 | 140 nM
8 | C[C@]12N[C@](C)(c3ccccc31)c1ccccc12 | 24 nM
9 | CC12Cc3ccccc3[C@@H](N1)c1ccccc12 (mixture of isomers) | 260 nM
10 | CC1c2ccccc2C[C@H]2N[C@]1(C)c1ccccc12 (mixture of isomers) | 590 nM
11 | CC12Cc3ccccc3[C@H](Cc3ccccc31)N2 (mixture of isomers) | 690 nM
12 | C[C@]12Cc3ccccc3[C@@H]3[C@H](c4ccccc41)N32 (mixture of isomers) | > 100000 nM
13 | C[C@@]12Cc3ccccc3[C@@H](C=N1)c1ccccc12 (racemic) | > 100000 nM
14 | Cc1cccc2c1[C@H]1Cc3ccccc3[C@]2(C)N1 (racemic) | 3000 nM
15 | C[C@@]12Cc3ccc(Cl)cc3C[C@@H](N1)c1ccccc12 (racemic) | 190 nM
16 | CCCC[C@@]12Cc3ccccc3C[C@@](C)(N1)c1ccccc12 (racemic) | 3600 nM
17 | C[C@@]12Cc3ccc(O)cc3C[C@@H](N1)c1ccccc12 (racemic) | 140 nM
18 | COc1ccc2c(c1)C[C@H]1N[C@@](C)(C2)c2ccccc21 (racemic) | 220 nM
19 | C[C@@]12Cc3ccccc3C[C@@H](N1)c1cc(Br)ccc12 (racemic) | 270 nM
20 | Cc1ccc2c(c1)C[C@H]1N[C@]2(C)c2ccccc21 (racemic) | 640 nM
21 | C[C@]12Cc3ccccc3C[C@](O)(N1)c1ccccc12 (racemic) | 104 nM
22 | C[C@@]12Cc3ccccc3C[C@@H](N1)c1ccccc12 (racemic) | 86 nM
23 | CN1[C@@H]2Cc3ccccc3C[C@@]1(C)c1ccccc12 (racemic) | 530 nM
24 | C[C@@]12Cc3ccc(Br)cc3C[C@@H](N1)c1ccccc12 (racemic) | 320 nM

Row | SMILES | IC50
25 | C[C@@]12Cc3ccccc3C[C@@H](N1)c1ccc(Br)cc12 (racemic) | 140 nM
26 | Cc1ccc2c(c1)[C@@]1(C)N[C@@H]2Cc2ccccc21 (racemic) | 100 nM
27 | C[C@@]12N[C@@H](c3ccccc31)[C@H](O)c1ccccc12 (racemic) | 640 nM
28 | C[C@]12N[C@](C)(Cc3ccccc31)c1ccccc12 (racemic) | 35 nM
29 | C[C@]12Cc3ccccc3C[C@H](c3ccccc31)N2Cc1ccccc1 (racemic) | 23000 nM
30 | C[C@@]12Cc3ccccc3C[C@@H](N1)c1cc(Cl)ccc12 (racemic) | 250 nM
31 | CC[C@@]12Cc3ccccc3C[C@@H](N1)c1ccccc12 (racemic) | 1360 nM
32 | C[C@]12N[C@H](Cc3ccccc31)c1c2ccc2ccccc12 (racemic) | 2300 nM
33 | C[C@]12N[C@H](Cc3cc4ccccc4cc31)c1ccccc12 (racemic) | 89000 nM
34 | CCN1[C@@H]2Cc3ccccc3C[C@@]1(C)c1ccccc12 (racemic) | 2510 nM
35 | Cc1cccc2c1C[C@H]1N[C@]2(C)c2ccccc21 (racemic) | 800 nM
36 | C[C@]12Cc3ccccc3C[C@H](c3ccccc31)[N+]2(C)C (racemic) | 7100 nM
37 | C[C@@]12Cc3ccccc3C[C@@H](N1)c1c(Cl)cccc12 (racemic) | 1370 nM
38 | C[C@]12N[C@H](Cc3c1ccc1ccccc31)c1ccccc12 (racemic) | 5800 nM
39 | Cc1ccc2c(c1)[C@]1(C)N[C@H](C2)c2ccccc21 (racemic) | 32 nM
40 | Cc1ccc2c(c1)[C@H]1Cc3ccccc3[C@]2(C)N1 (racemic) | 440 nM
41 | C[C@]12N[C@H](Cc3ccccc31)c1cc3ccccc3cc12 (racemic) | 86000 nM
42 | C[C@@]12Cc3cc(Br)ccc3C[C@@H](N1)c1ccccc12 (racemic) | 79 nM
43 | C[C@@]12Cc3ccccc3C[C@@H](N1)c1ccccc12 (stereo in doubt; (+)-15) | 104 nM
44 | C[C@@]12Cc3ccccc3C[C@@H](N1)c1ccccc12 (stereo in doubt; (-)-15) | 106 nM
